# Test results reported in patent US10377718B2, “Apelin receptor (APJ) agonists and uses thereof” (Research Triangle Institute, priority 2014, dated 2019).
# Like-named read-outs stand apart in the source and are kept apart here.
# Assays:
# apelin receptor (APJ) = target: T1, apelin receptor (APJ) (Homo sapiens, UniProt P35414); assay: in vitro apelin agonist activity (methods of Giddings et al., Apelin-13 as positive control); assay type: cell-based
# T1 sequence (P35414 1-380): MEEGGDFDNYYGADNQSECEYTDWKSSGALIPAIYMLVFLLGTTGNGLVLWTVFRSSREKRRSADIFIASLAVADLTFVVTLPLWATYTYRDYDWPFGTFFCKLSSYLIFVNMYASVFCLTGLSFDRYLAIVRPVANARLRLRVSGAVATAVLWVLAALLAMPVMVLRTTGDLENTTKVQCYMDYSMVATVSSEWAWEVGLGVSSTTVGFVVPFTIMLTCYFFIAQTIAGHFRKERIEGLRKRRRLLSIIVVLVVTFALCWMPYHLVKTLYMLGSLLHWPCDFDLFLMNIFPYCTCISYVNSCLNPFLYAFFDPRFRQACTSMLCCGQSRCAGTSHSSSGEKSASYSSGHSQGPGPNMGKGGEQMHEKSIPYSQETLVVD
# Text: The compounds above were studied for their in vitro activity as apelin agonists using the methods described by Giddings et al. Giddings et al., 2010 Int J High Thro Screen. 1:39-47, the contents of which are hereby incorporated by reference in its entirety.
# C57BL/6 mice = assay: in vivo blood pressure lowering activity, non-invasive blood pressure and heart rate after IP injection; settings: Apelin-13 at 0.4 nmol/kg
# Description: The compounds were also assayed for blood pressure activity using C57BL/6 mice and the procedure described by Tatemoto et al. The novel peptide apelin lowers blood pressure via a nitric oxide-dependent mechanism. Regul Pept. 2001; 99: 87-92. […] Studies have been published citing reductions in blood pressure occur following peptide apelin administration. Apelin-13 was used as a positive control. Knockout C57BL/6 mice lacking APJ have cardiovascular deficiencies. […] Charo et al. Am J Physiol Heart Circ Physiol. 2009 November 297(5):[…] et al. J Physiol Biochem. 2007 December; 63(4):359-73. Blood pressure measurements in these species of mice have been reported in the literature. […] et al. Am J Physiol Heart Circ Physiol. 2003 February; 284(2):[…]-74. On the first day of the study, 11 animals were treated with apelin-13, 11 with vehicle alone, and 11 as sham controls. The two later groups were used to determine effects (if any) of the vehicle or injection alone on blood pressure (BP). The experiment was conducted as follows: The animals were restrained and a baseline measurement taken for 5 min. Animals were injected and immediately monitored for 15 minutes. The effect of test agents should be apparent within this time. Tatemoto et al. reported that the effects of Apelin-13 were apparent within minutes. Tatemoto et al. 2001 Immediately following dosing, blood pressure (diastolic, systolic and mean pressure) and heart rate for each animal was recorded for up to 15 minutes using a Kent Scientific CODA Non-Invasive Blood Pressure System. […] On day 2-5 a similar protocol was used in increasing doses. The animals were randomized daily in three groups of 11 to receive either of the two experimental compounds by IP injection. […] At the end of the 5-day dosing period, all animals were humanely euthanized. [table]
# [1] = apelin agonist activity, Giddings et al. method, read-out: agonist activity (EC50)
EC50 (apelin receptor (APJ); [1]) [µM],Molecule,other results
,COc1cccc(OC)c1-c1cc(C(=O)N[C@@H](CC(C)C)C(=O)O)nn1-c1ccc(F)cc1 [compound 34],EC50 (apelin receptor (APJ)): < 10 µM
< 10,"COc1cccc(OC)c1-c1cc(C(=O)N[C@H](CC(=O)O)CC(C)C)nn1-c1ccc(F)cc1 [compound 56, (S)-3-(5-(2,6-Dimethoxyphenyl)-1-(4-fluorophenyl)-1H-pyrazole-3-carboxamido)-5-methylhexanoic acid]",
< 10,COc1cccc(OC)c1-c1cc(C(=O)N[C@H](CC(N)=O)CC(C)C)nn1-c1ccc(F)cc1 [compound 65],
< 10,COc1cccc(OC)c1-c1cc(C(=O)N[C@@H](CC(=O)O)CC(C)C)nn1-c1ccc(F)cc1 [compound 67],
,COc1cccc(OC)c1-c1cc(C(=O)N[C@H](C(=O)NCC(=O)O)C2CCCCC2)nn1-c1ccc(F)cc1 [compound 70],EC50 (apelin receptor (APJ)): < 10 µM
< 10,"COc1cccc(OC)c1-c1cc(C(=O)N[C@H](C(=O)O)C2CCCCC2)nn1-c1ccc(F)cc1 [compound 71, (S)-2-Cyclohexyl-2-(5-(2,6-dimethoxyphenyl)-1-(4-fluorophenyl)-1H-pyrazole-3-carboxamido)acetic acid]",
< 10,"COc1cccc(OC)c1-c1cc(C(=O)N[C@H](CC(=O)NCC(=O)O)CC(C)C)nn1-c1ccc(F)cc1 [compound 77, (S)-2-(3-(5-(2,6-Dimethoxyphenyl)-1-(4-fluorophenyl)-1H-pyrazole-3-carboxamido)-5-methylhexanamido)acetic acid]",
< 10,"COc1cccc(OC)c1-c1cc(C(=O)N[C@H](CC(=O)O)CC(C)C)nn1C1CCCCC1 [compound 79, (S)-3-(1-Cyclohexyl-5-(2,6-dimethoxyphenyl)-1H-pyrazole-3-carboxamido)-5-methylhexanoic acid]",
< 10,"COc1cccc(OC)c1-c1cc(C(=O)N[C@H](CC(=O)NCC(=O)O)CC(C)C)nn1C1CCCCC1 [compound 81, (S)-2-(3-(1-Cyclohexyl-5-(2,6-dimethoxyphenyl)-1H-pyrazole-3-carboxamido)-5-methylhexanamido)acetic acid]",
< 10,"COc1cccc(OCc2ccccc2)c1-c1cc(C(=O)N[C@H](CC(=O)O)CC(C)C)nn1-c1ccc(F)cc1 [compound 82, (3S)-3-(5-(2-(Benzyloxy)-6-methoxyphenyl)-1-(4-fluorophenyl)-1H-pyrazole-3-carboxamido)-5-methylhexanoic acid]",
< 10,COC(=O)COc1cccc(OC)c1-c1cc(C(=O)N[C@H](CC(=O)O)CC(C)C)nn1-c1ccc(F)cc1 [compound 86],
,"COc1cccc(OC)c1-c1cc(C(=O)N[C@H](C(=O)O)C2CCCCC2)nn1C1CCCCC1 [compound 93, (S)-2-Cyclohexyl-2-(1-cyclohexyl-5-(2,6-dimethoxyphenyl)-1H-pyrazole-3-carboxamido)acetic acid]",EC50 (apelin receptor (APJ)): < 10 µM
< 10,"COc1cccc(OC)c1-c1cc(C(=O)N[C@H](CC(=O)O)CC(C)C)nn1CC1CCCCC1 [compound 95, (S)-3-(1-(Cyclohexylmethyl)-5-(2,6-dimethoxyphenyl)-1H-pyrazole-3-carboxamido)-5-methylhexanoic acid]",
< 10,"COC(=O)CNC(=O)C[C@H](CC(C)C)NC(=O)c1cc(-c2c(OC)cccc2OC)n(C2CCCCC2)n1 [compound 103, (S)-Methyl 2-(3-(1-cyclohexyl-5-(2,6-dimethoxyphenyl)-1H-pyrazole-3-carboxamido)-5-methylhexanamido)acetate]",
< 10,COc1cccc(OC)c1-c1cc(C(=O)N[C@H](CC(=O)O)CC(C)C)nn1CC(C)C [compound 118],
< 10,"COc1cccc(OCc2ccccc2)c1-c1cc(C(=O)N[C@H](CC(=O)O)CC(C)C)nn1C1CCCCC1 [compound 126, (3S)-3-(5-(2-(Benzyloxy)-6-methoxyphenyl)-1-cyclohexyl-1H-pyrazole-3-carboxamido)-5-methylhexanoic acid]",
< 10,"COC(=O)CNC(=O)C[C@H](CC(C)C)NC(=O)c1cc(-c2c(OC)cccc2OCc2ccccc2)n(C2CCCCC2)n1 [compound 127, Methyl 2-((3S)-3-(5-(2-(benzyloxy)-6-methoxyphenyl)-1-cyclohexyl-1H-pyrazole-3-carboxamido)-5-methylhexanamido)acetate]",
< 10,"COc1cccc(OCc2ccccc2)c1-c1cc(C(=O)N[C@H](CC(=O)NCC(=O)O)CC(C)C)nn1C1CCCCC1 [compound 129, 2-((3S)-3-(5-(2-(Benzyloxy)-6-methoxyphenyl)-1-cyclohexyl-1H-pyrazole-3-carboxamido)-5-methylhexanamido)acetic acid]",
< 10,"COC(=O)CNC(=O)C[C@H](CC(C)C)NC(=O)c1cc(-c2c(OC)cccc2OC)n(CC(C)C)n1 [compound 130, (S)-Methyl 2-(3-(5-(2,6-dimethoxyphenyl)-1-isobutyl-1H-pyrazole-3-carboxamido)-5-methylhexanamido)acetate]",
< 10,COc1cccc(OCc2ccccc2)c1-c1cc(C(=O)N[C@H](CC(=O)NCc2ccccc2)CC(C)C)nn1C1CCCCC1 [compound 132],
< 10,"CCCCNC(=O)C[C@H](CC(C)C)NC(=O)c1cc(-c2c(OC)cccc2OCc2ccccc2)n(C2CCCCC2)n1 [compound 133, 5-(2-(Benzyloxy)-6-methoxyphenyl)-N-((S)-1-(butylamino)-5-methyl-1-oxohexan-3-yl)-1-cyclohexyl-1H-pyrazole-3-carboxamide]",
< 10,"COc1cccc(OCc2ccccc2)c1-c1cc(C(=O)N[C@H](CC(=O)NCc2ncco2)CC(C)C)nn1C1CCCCC1 [compound 134, 5-(2-(Benzyloxy)-6-methoxyphenyl)-1-cyclohexyl-N-((S)-5-methyl-1-((oxazol-2-ylmethyl)amino)-1-oxohexan-3-yl)-1H-pyrazole-3-carboxamide]",
< 10,"COc1cccc(OCc2ccccc2)c1-c1cc(C(=O)N[C@H](CC(=O)NCC(=O)N(C)C)CC(C)C)nn1C1CCCCC1 [compound 136, 5-(2-(Benzyloxy)-6-methoxyphenyl)-1-cyclohexyl-N-((S)-1-((2-(dimethylamino)-2-oxoethyl)amino)-5-methyl-1-oxohexan-3-yl)-1H-pyrazole-3-carboxamide]",
< 10,COC(=O)CNC(=O)C[C@H](CC(C)C)NC(=O)c1cc(-c2c(OC)cccc2OC)n(-c2ccc(F)cc2)n1 [compound 137],
< 10,"CCOC(=O)CCNC(=O)C[C@H](CC(C)C)NC(=O)c1cc(-c2c(OC)cccc2OCc2ccccc2)n(C2CCCCC2)n1 [compound 138, Ethyl 3-((3S)-3-(5-(2-(benzyloxy)-6-methoxyphenyl)-1-cyclohexyl-1H-pyrazole-3-carboxamido)-5-methylhexanamido)propanoate]",
< 10,"COc1cccc(OC)c1-c1cc(C(=O)N[C@H](CC(=O)NCc2ncco2)CC(C)C)nn1CC(C)C [compound 140, (S)-5-(2,6-Dimethoxyphenyl)-1-isobutyl-N-(5-methyl-1-((oxazol-2-ylmethyl)amino)-1-oxohexan-3-yl)-1H-pyrazole-3-carboxamide]",
< 10,"CNC(=O)C[C@H](CC(C)C)NC(=O)c1cc(-c2c(OC)cccc2OC)n(CC(C)C)n1 [compound 141, (S)-5-(2,6-Dimethoxyphenyl)-1-isobutyl-N-(5-methyl-1-(methylamino)-1-oxohexan-3-yl)-1H-pyrazole-3-carboxamide]",
,Apelin-13 [reference compound],lowers blood pressure by (C57BL/6 mice): ~10%
